Test results published in paper PMC9304322, “Targeting retinoic acid receptor alpha-corepressor interaction activates chaperone-mediated autophagy and protects against retinal degeneration” (Nature Communications, 2022).
Several values for one entry are separate records, joined by “and”; a condition that tells them apart may be missing. Identical values can stand only once.

What was measured:
[1] = system: CaCo-2 cells; assay: Bidirectional permeability assay with CaCo-2 cells; assay type: in vitro ADME, human; details: in words
Procedure: In vitro solubility in the following conditions A) HBSS/HEPES 10 mM/BSA 0.1% pH 6 B) HBSS/HEPES 10 mM/BSA 0.1% pH 7.4 C) TRIS/BSA 0.1% PBS (pH 7.4 and at indicated doses were measured by Nephelometry using the NEPHELOstar Galaxy apparatus (BMG Lab Technologies). In vitro stability in human, mouse and rat liver microsomes and permeability using a bidirectional permeability assay with CaCo-2 cells (pH 6.5/7.4) assays were performed with standard methodology and analyzed by LC-MS/MS. at SIMM-SERVIER joint Biopharmacy Laboratory. ADME properties for CA39 and CA77 were predicted by QikProp (Schrödinger, LLC, Releases 2016-2020) software.

[2] = system: rd10 mice; details: mouse, in vivo, ip, 40 mg/kg
[3] = system: rd10 mice; assay: rd10 mice, single intravitreal injection, retina histology; assay type: in vivo, mouse
Procedure: (§1) C57BL/6 J mice wild-type (WT) and homozygous for the Pde6 mutation (rd10 mouse model of retinal degeneration) were obtained from The Jackson Laboratory and experiments were performed at the age indicated in each part of the study. C57BL/6 KFERQ-Dendra mice were generated by back-crossing FVB KFERQ-Dendra mice with wild-type C57BL/6 mice for 8 generations. Both male and female animals were used in this study in equally distribution groups. However, results from both sexes were pooled, because of absence of significant differences in any of the parameters analyzed after statistical analysis with a mixed model of two-way ANOVA sex and treatment as independent variables and the corresponding measure as dependent variable. All animals were housed in a barrier-controlled facility (19–23 °C 30–60% relative humidity; 12 h light/dark cycle) with ad libitum access to standard chow pellets (protein 19 gm%/carbohydrate 67 gm%/fat 4 gm%) and water. For animal administration of CA compounds, a formula containing 30% PEG 400 (Sigma, #8.0745), 65% of 5% glucose solution, 5% Tween 80 (Sigma, #P1754) was used to dissolve them. CA compounds were prepared freshly by adding 5% DMSO and sonicating for 1 h. Treatment of KFERQ-Dendra mice with the CA compounds was done at 4 months of age by i.p. daily injection of 30 mg/kg bw or vehicle for three consecutive days and tissues collected 6 h after the last injection. In the case of rd10 mice, animals were daily injected from P18 to P25 with CA77 (40 mg/kg bw). In the case of intravitreal administration, a single intravitreal injection was applied at P18 with CA77 (40 µM) in DMSO/PBS and the contralateral eye was injected with PBS and DMSO at same concentration. At P26, mice were sacrificed and eyes fixed overnight with 4% PFA (Sigma, #P6148) in PBS at 4 °C for immunofluorescence or retinas dissected and immediately frozen for biochemistry. Distribution of animals in the vehicle or treatment group was done randomly. ICR (CD-1) outbred 3 months old male mice from ENVIGO were used for the pharmacokinetic studies (see pharmacokinetic section for housing and handling details). All animal studies and procedures complied with ethical regulations, were performed in accordance with the European Union guidelines and the ARVO Statement for the Use of Animals in Ophthalmic and Vision Research and were approved by the Institutional Animal Care and Use Committee at the Albert Einstein College of Medicine, the CSIC Bioetica Comite and approved by the Comunidad de Madrid, PROEX232/17.
(§2) 12 μm cryosections and immunofluorescence in retinal sections[10] after orienting retinas with a dorsal mark, so comparisons were performed taking into account the precise retinal area. Primary antibodies used in this study were visual (rod) arrestin, cone arrestin, Opsin R/G, transducin, GFAP, N-CoR1. Sections were visualized by confocal microscopy (TCS SP5; Leica Microsystems).
(§3) For ONL thickness quantification, DAPI images were taken at 40X in a fluorescence microscope Multidimensional system Leica AF6000 LX coupled to DMI600B microscope and Hamamatsu CCD 9100-O2 camera. At least two sections per animal were analyzed, preferably central sections. Eight images per retina equally distributed along the retina were acquired. Three measures were taken per image and ratio ONL/INL quantified with ImageJ tools. Leica LAS-X (3.7.4.23463) was used for image acquisition and ImageJ (v.2.1.0) was used for image processing. For OS length measures, fixed positions common to all pictures were considered and OS length was measured using ImageJ straight line tool.
Eyes were enucleated, put in a plate with cold PBS and an incision was made under the microscope to let the fixative enter into the eye. […]

[4] = system: rd10 mice; assay: rd10 mice, daily i.p. injection, retina histology and biochemistry; assay type: in vivo, mouse; details: daily i.p. 40 mg/kg bw, P18 to P25
Procedure: as §1, §2, §3
RNA was extracted from individual retinas or tissue sections (brain, liver). Total RNA from retinas was extracted using TRIzol Reagent (Invitrogen, # 15596-018), and reverse transcription was performed using the High-Capacity cDNA Reverse Transcription Kit (Applied Biosystems, # 4374966) according to the manufacturer’s instructions. […]

[5] = system: retinal explants of rd10 mice; assay: Ex-vivo retinal cultures of rd10 mice; parameters: species or system mouse; details: rd10 P21 to P24; 40 μM for 72 h; vs contralateral untreated explant
Procedure: After removal of the eyes, all non-relevant tissue was removed from the neuroretina, which was then placed, photoreceptors upside down, in Millicell support inserts (Millipore, #PICM0RG50) and maintained in DMEM with 1 μM insulin (SIGMA, #I2643) for 72 h at 37 °C in a 5% CO2 atmosphere. Where indicated, retinas were incubated with 40 μM CA77 for the indicated times. The retinas were then washed twice with phosphate-buffered saline (PBS), fixed overnight in 4% paraformaldehyde (w/v) in 0.1 M phosphate buffer (pH 7.4) and processed. Retinas were separated along dorsoventral axis and nasal half was used for whole-mounts and temporal half was used for 12 µm cryosections.
Immunostainings were performed overnight at 4 °C using antibodies against visual (rod) arrestin and cone arrestin after initial permeabilization with 2% Triton X-100 for 1 h at RT and subsequent incubation with blocking solution (10% normal goat serum, 0.25% Triton X-100 in PBS). The retinas were then washed and incubated for 1 h with Alexa 568 or 647 (Invitrogen, #A-11004, #A32728), counterstained with DAPI (1 µg/mL, Sigma, # D9542), mounted in Fluoromount-G (Cultek, #100-01), and visualized by confocal microscopy in an SP5 confocal microscope (TCS SP5; Leica Microsystems). […]

[6] = rd10 mice, 7 days after a single intravitreal injection (40 µM) at P18
[7] = rd10 mice, individual values and Mean CA77

## CC(=O)Nc1ccc(C2=Nc3ccc(Cl)cc3OC2)cc1 [CA77]
[1]
  membrane permeability: highly membrane permeable
[2]
  ERG amplitude of b-mixed, b-phot and flicker waves: significantly higher amplitude
[3]; Fig. S9c, individual animals
  ONL/INL: 0.8086 and 0.8292 and 0.9847
[3]; Fig. S9c, mean, veh 0.676
  ONL/INL, mean: 0.8578
[3]; Fig. S9d, individual animals
  %functional cones: 28.972% and 50% and 24.2991% and 28.7037% and 13.3929% and 16.5289% and 21.8182%
[3]; Fig. S9d, mean, veh 10.94
  %functional cones, mean: 26.24%
[3]; [6]
  gliosis: significatively improved
  retinal ONL/INL ratio: thicker retinal ONL/INL ratio
[3]; [7]
  Fig. 7a, retinal measurement by eccentricity, eccentricity 1: 0.3526
  Fig. 7a, retinal measurement by eccentricity, eccentricity 2: 0.3984
  Fig. 7a, retinal measurement by eccentricity, eccentricity 3: 0.5851
  Fig. 7a, retinal measurement by eccentricity, eccentricity 4: 0.8477
  Fig. 7a, retinal measurement by eccentricity, eccentricity -1: 0.3423
  Fig. 7a, retinal measurement by eccentricity, eccentricity -2: 0.3489
  Fig. 7a, retinal measurement by eccentricity, eccentricity -3: 0.5902
[4]; WT and rd10 mice
  expression levels of NCOR1: did not change the expression levels of NCOR1
[4]; rd10 mice
  mRNA levels of photoreceptor-specific proteins (rhodopsin): Higher mRNA levels of photoreceptor-specific proteins
  outer nuclear layer (ONL) thickness: significantly thicker outer nuclear layers
  retinal GFAP levels: strikingly lower levels of GFAP
  retinal L2A levels by immunoblot: significantly increasing retinal levels of the limiting CMA component
[4]; rd10 mice, vs vehicle
  length of the outer segments of photoreceptors: increased length of the outer segments of photoreceptors
[5]
  cones (cone arrestin-positive) in retinal explants: higher preservation for cones
  number of rods (rod arrestin-positive) in retinal explants: significant preservation of the number of rods
